# Source: US6482858B1, “(−)-hydroxycitric acid for wound healing and immunomodulation” (priority 2001, dated 2002)
# Like-named read-outs stand apart in the source and are kept apart here.
# Assays:
# [1] = Single-subject trial of potassium HCA: skin health and psoriasis; type: in vivo, human; settings: middle-aged subject
# Excerpt: The results in the above examples led us to question whether HCA might be useful as a supplement for individuals not in need of weight loss and not under obvious stress. To this end, a middle-aged subject ingested approximately 2 to 3 grams HCA in the form of the potassium salt twice daily for 10 days. They were instructed to report on effects other than those which were to be expected, i.e., effects other than appetite control. Two quite interesting findings typical of re-regulation of corticoid metabolism emerged from this crude trial. […] These effects were similar in kind, although greater in degree, than this subject had experienced in the past when experimenting with relatively large dosages of melatonin (5 to 20 mg taken at bedtime) and, when much younger, amino acid supplementation designed to improve growth hormone release. We interpreted this finding as indicative of the normalization of melatonin and growth hormone metabolism. None of the side effects typical of elevated melatonin supplementation, such as morning grogginess or nasal congestion, were noted. Second, this subject noticed an improvement in their psoriasis during the last few days of the trial. In this subject's past experience, supplements which tended to improve their overall immune response and skin tone—including melatonin—at the same time tended to worsen their psoriasis. Therefore, this subject's experience with HCA was in line with the reports in the published literature regarding the condition as representative of corticoid and circadian dysregulation.
# [2] = molecular target: cortisol receptors (Homo sapiens, UniProt P04150); settings: cited from earlier work
# Sequence of cortisol receptors (P04150 whole entry): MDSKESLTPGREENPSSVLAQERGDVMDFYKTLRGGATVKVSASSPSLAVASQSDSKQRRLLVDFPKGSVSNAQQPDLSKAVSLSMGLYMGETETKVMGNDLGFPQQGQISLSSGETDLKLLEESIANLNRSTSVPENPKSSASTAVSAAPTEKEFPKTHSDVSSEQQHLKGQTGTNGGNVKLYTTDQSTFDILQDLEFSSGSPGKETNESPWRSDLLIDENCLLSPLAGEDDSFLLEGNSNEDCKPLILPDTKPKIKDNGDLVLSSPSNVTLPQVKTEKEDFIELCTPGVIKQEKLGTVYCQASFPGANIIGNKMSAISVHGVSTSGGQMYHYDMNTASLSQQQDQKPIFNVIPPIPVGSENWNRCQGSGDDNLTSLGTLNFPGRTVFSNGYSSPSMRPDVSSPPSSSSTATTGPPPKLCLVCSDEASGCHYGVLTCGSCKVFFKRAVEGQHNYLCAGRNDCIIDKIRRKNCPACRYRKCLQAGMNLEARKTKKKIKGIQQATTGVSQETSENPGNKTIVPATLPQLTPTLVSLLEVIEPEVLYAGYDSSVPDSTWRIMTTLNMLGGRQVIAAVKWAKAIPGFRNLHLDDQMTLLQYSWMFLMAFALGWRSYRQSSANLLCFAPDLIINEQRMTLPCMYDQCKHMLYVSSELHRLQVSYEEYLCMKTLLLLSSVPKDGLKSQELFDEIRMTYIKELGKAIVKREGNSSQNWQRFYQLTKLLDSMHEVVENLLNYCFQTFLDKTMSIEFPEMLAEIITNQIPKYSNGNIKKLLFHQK
# [3] = cited from earlier work; for % Body H2O / % Ash, wet / % Fat, wet / % Protein, wet: mean; for % Body H2O: 52.6 mmol/kg diet, six weeks; for % Ash, wet / % Fat, wet / % Protein, wet: wet weight
smiles,measurement,setting,value
"O=C(O)CC(O)(C(=O)O)C(O)C(=O)O (single isomer, unassigned; (-)) [HCA, (−)-hydroxycitric acid]","Side effects typical of elevated melatonin supplementation (morning grogginess, nasal congestion)",[1]; 10 days,None
same,Psoriasis,"[1]; approximately 2 to 3 grams twice daily for 10 days, last few days of the trial",improvement
same,Skin tone,"[1]; approximately 2 to 3 grams twice daily, before the first week had passed",improved markedly
"CC#C[C@]1(O)CC[C@H]2[C@@H]3CCC4=CC(=O)CCC4=C3[C@@H](c3ccc(N(C)C)cc3)C[C@@]21C [RU 486, mifepristone]",Plasma ACTH and cortisol,"[2]; 10 mg/kg.day oral, 7-14 days",marked compensatory elevations
same,Subjects who developed generalized exanthem (skin rash),"[2]; 10 mg/kg.day oral, after 9 days of treatment",8 of the 11
same,Enhancement of immune function,"[2]; high doses, normal volunteers, 7-14 days",does not result in measurable enhancement of immune function
"O=C([O-])CC(O)(C(=O)[O-])C(O)C(=O)[O-].[Na+].[Na+].[Na+] (stereo not drawn) [Tri-NaHCA, trisodium (−)-hydroxycitrate]",% Body H2O,[3]; Zucker lean,64.3%
same,"% Ash, wet",[3]; Zucker lean,4.9/NA %
same,"% Fat, wet",[3]; Zucker lean,8.05/NA %
same,"% Protein, wet",[3]; Zucker lean,22.0/NA %
same,% Body H2O,[3]; Zucker obese,25.8%
same,"% Ash, wet",[3]; Zucker obese,2.6/NA %
same,"% Fat, wet",[3]; Zucker obese,59.8/NA %
same,"% Protein, wet",[3]; Zucker obese,11.8/NA %
same,Carcass protein and ash/mineral content compared with control,[3]; lean and obese animals,increased
